Common to all, as to type: in vivo
Data set [1] can be described thus: Tolerability in rat.
The nature of data set [2]: Tolerability in dog.
Data set [3] can be described thus: Pharmacokinetic profile in rat.
A short description of data set [4]: Pharmacokinetic profile in dog.
The test system of data set [5] is rodent cognitive models (novel object recognition). Nature of the data set: Novel object recognition rodent cognitive model.
The subject of data set [6] is rodent cognitive models (Morris water maze). The experiment in a line: Morris water maze rodent cognitive model.
Data set [7] relates to MPTP non-human primate model of Parkinson's disease cognitive impairment. Nature of the data set: Chronic low dose MPTP non-human primate model of Parkinson's disease cognitive impairment.

Turning to `COc1ccc(CN2C[C@@]3(CCNC(=O)C3)C2=O)cc1` [The Compound, (S) 2-(4-methoxybenzyl)-2,7-diazaspiro[3.5]nonane-1,6-dione], the tolerability entry in data set [1] and in data set [2] was “well tolerated” each time. Also, the pharmacokinetic profile result in data set [3] and in data set [4] was “favorable pharmacokinetic profile” in each case. The “efficacy in novel object recognition” value in data set [5] is given as “robust efficacy”. Further, the “efficacy in Morris water maze” value in data set [6] was “robust efficacy”. The “onset, size and duration of effect” value in data set [7] (MPTP non-human primate study) was “rapid, robust, and long lasting effect”. Besides, the “effect on MPTP-induced cognitive deficits (attention, working memory, executive function)” value in data set [7] (primate versions of Cambridge Neuropsychological Test Automated Battery assessments) is given as “reversed MPTP-induced deficits in several cognitive domains”.

The values above are taken from patent US20210322393A1, “METHODS OF TREATING COGNITIVE IMPAIRMENT ASSOCIATED WITH NEURODEGENERATIVE DISEASE” (Aptinyx Inc., priority 2019, published 2021).
